# Measured values published in patent US6677330B1, “Fluorides of 4-substituted piperidine derivatives” (priority 1999, dated 2004).
# Structures can show the parent of a compound that is named as a salt.
# Biological target: T1, acetylcholinesterase (Rattus norvegicus, UniProt P37136)
# T1 construct: Using a rat brain homogenate as a source of acetylcholinesterase; from tissue; host or cells: rat brain homogenate
# T1 sequence (P37136 32-614): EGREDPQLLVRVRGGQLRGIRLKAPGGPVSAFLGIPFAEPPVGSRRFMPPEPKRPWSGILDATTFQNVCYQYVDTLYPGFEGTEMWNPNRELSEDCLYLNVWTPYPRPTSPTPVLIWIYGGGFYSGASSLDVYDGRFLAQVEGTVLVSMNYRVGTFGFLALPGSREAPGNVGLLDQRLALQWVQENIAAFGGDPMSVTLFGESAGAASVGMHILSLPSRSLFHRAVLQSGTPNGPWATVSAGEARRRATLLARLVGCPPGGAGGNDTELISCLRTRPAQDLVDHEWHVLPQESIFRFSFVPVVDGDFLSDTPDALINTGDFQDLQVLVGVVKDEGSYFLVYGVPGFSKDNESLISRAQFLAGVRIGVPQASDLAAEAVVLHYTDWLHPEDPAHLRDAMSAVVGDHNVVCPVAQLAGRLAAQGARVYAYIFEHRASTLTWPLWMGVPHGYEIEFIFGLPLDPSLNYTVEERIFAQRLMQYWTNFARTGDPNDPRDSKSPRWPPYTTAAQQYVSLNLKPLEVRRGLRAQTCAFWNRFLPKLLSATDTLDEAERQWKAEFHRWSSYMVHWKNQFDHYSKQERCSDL
# Experiment: biochemical
# Details: rat brain homogenate as enzyme source; acetylthiocholine substrate, DTNB, absorbance at 412 nm; read-out: IC50 (50% inhibitory concentration on acetylcholinesterase)
# Protocol: Inhibitory effect on acetylcholinesterase in vitro
# Using a rat brain homogenate as a source of acetylcholinesterase, the esterase activity was determined in accordance with the method of Ellman et al^1). Acethylthiocholine (as a substrate), a test compound and DTNB (5,5′-dithiobis(2-nitrobenzoic acid)) were added to the […] brain homogenate, and then incubated. Then, the resulting yellow product produced by the reaction of the resulting thiocholine with DTNB was determined for the change in absorbanceat 412 nm, to determine the acethylcholinesterase activity.
# ^1); Ellman. G. L., Courtney, K. D., Andres, V. and Featherstone, R. M., (1961), Biochem. Pharmacol., 7, 88-95.
# The inhibitory effect of each test compound on acethylcholinesterase was determined in terms of 50% inhibitory concentration (IC50).
# Each of the compounds was dissolved in physiological saline for use as a test sample.
row,SMILES,IC50
1,"CCOc1cc2c(cc1OCC)C(=O)C(F)(CC1CCN(Cc3ccccc3)CC1)C2 (stereo not drawn) [Example 1, 1-Benezyl-4-[(5,6-diethoxy-2-flouro-1-indanon)-2-yl]methylpiperidine Hydrochloride]",0.38 nM
2,"COc1ccc2c(c1)CC(F)(CC1CCN(Cc3ccccc3)CC1)C2=O (stereo not drawn) [Example 12, 1-Benzyl-4-[(5-methoxy-2-flouro-1-indanon)-2-yl]methylpiperidine Hydrochloride]",1.2 nM
3,"COc1cc2c(cc1OC)C(=O)C(F)(CC1CCN(Cc3ccc(O)cc3)CC1)C2 (stereo not drawn) [Example 15, 4-[(5,6-Dimethoxy-2-flouro-1-indanon)-2-yl]methyl-1-(4-hydroxybenzyl)piperidine Hydrochloride]",0.32 nM
4,"COc1cc2c(cc1OC)C(=O)C(F)(CCCC1CCN(Cc3ccccc3)CC1)C2 (stereo not drawn) [Example 14, 1-Benzyl-4-[3-[5,6-dimethoxy-2-flouro-1-indanon)-2-yl]propyl]piperidine Hydrochloride]",1.4 nM
5,"COc1cc2c(cc1OC)C(=O)C(F)(CC1CCN(Cc3cccc(C)c3)CC1)C2 (stereo not drawn) [Example 5, 4-[(5,6-Dimethoxy-2-flouro-1-indanon)-2-yl]methyl-1-(3-methylbenzyl)piperidine Hydrochoride]",0.82 nM
6,"COc1cc2c(cc1OC)C(=O)C(F)(CC1CCN(Cc3cccc([N+](=O)[O-])c3)CC1)C2 (stereo not drawn) [Example 11, 4-[(5,6-Dimethoxy-2-flouro-1-indanon)-2-yl]methyl-1-(3-nitrobenzyl)piperidine Hydrochloride]",0.7 nM
7,"CCCOc1cc2c(cc1OCCC)C(=O)C(F)(CC1CCN(Cc3ccccc3)CC1)C2 (stereo not drawn) [Example 17, 1-Benzyl-4-[[[5,6-di-(1-propyloxy)]-2-flouro-1-indanon-2-yl]methylpiperidine Hydrochloride]",0.89 nM
8,"COc1cc2c(cc1OC)C(=O)C(F)(CC1CCN(CC3CCCCC3)CC1)C2 (stereo not drawn) [Example 6, 1-(-Cyclohexylmethyl-4-[(5,6-dimethoxy-2-flouro-1-indanon)-2-yl]methylpiperidine Hydrochloride]",1.7 nM
9,"COc1cc2c(cc1OC)C(=O)C(F)(CC1CCN(Cc3cccc(F)c3)CC1)C2 (stereo not drawn) [Example 4, 4-[(5,6-Dimethoxy-2-flouro-indanon)-2-yl]methyl-1-(3-flourobenzyl)piperidine Hydrochloride]",0.47 nM

# System: not given
# Experiment: not given
# Details: not given
row,melting point,SMILES
1,143 to 145 °C,COc1cc2c(cc1OC)C(=O)C(F)(CC1CCN(CC3OCCO3)CC1)C2 (stereo not drawn) (as salt: hydrochloride)
2,177 to 180 °C,COc1cc2c(cc1OC)C(=O)C(F)(CC1CCN(Cc3ccccn3)CC1)C2 (stereo not drawn) (as salt: hydrochloride)
3,139 to 141 °C,COc1cc2c(cc1OC)C(=O)C(F)(CC1CCN(Cc3cccc(C#N)c3)CC1)C2 (stereo not drawn) (as salt: hydrochloride)
